According to patent US11684614B2, “Formulations of hydroxypyridonate actinide/lanthanide decorporation agents” (priority 2017, dated 2023):
Several values for one entry are separate records, joined by “and”; a condition that tells them apart may be missing. Identical values can stand only once.

Assay: Repeated-treatment efficacy for removing an intravenous dose of 238Pu (excretion, tissue retention, clinical observations), female and male arms;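 for % Recovered Dose ART: abdominal tissue remainder incl GI tract reproductive organs spleen bladder and fat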
Format: in vivo, Swiss-Webster mice
Conditions: listed as 3,4,3-LI(1,2-HOPO); for % Recovered Dose Kidney / % Recovered Dose Liver / % Recovered Dose SKEL / % Recovered Dose SOFT / % Recovered Dose Total Feces / % Recovered Dose ART / % Recovered Dose Combined Body / % Recovered Dose Combined Excreta / % Recovered Dose Total Urine / % Recovered Dose GI Tract / % Recovered Dose Soft Tissue / % Recovered Dose Total Bone: male animals
Description: The objective of this study was to characterize the efficacy of 3,4,3-L1(1,2-HOPO) at enhancing elimination from an internal plutonium burden in female and male Swiss-Webster mice administered a soluble citrate complex of ^238Pu and treated multiple times, starting at 24 hours after the exposure. Efficacy was evaluated by comparing the tissue contents, urinary and fecal excretions of ^238Pu in treated animals versus untreated animals.
The medical countermeasure 3,4,3-L1(1,2-HOPO) was administered parenterally (ip) or orally (po) via consecutive injections or gavages (six daily or twelve twice daily) starting at 24 hours post contamination at the following four selected doses: 30 μmol/kg ip, 150 μmol/kg po, 300 μmol/kg po, and 600 μmol/kg po (equivalent to respective approximate human doses range of […], using the accepted conversion system of mouse doses into human equivalent doses—HED—based on body surface area). Oral doses also included the permeability enhancer selected during formulation development work.
• Challenge isotope: ^238Pu • Challenge dose: 25 nCi (i.e., approximately 0.8 μCi/kg) • Route of contamination: Intravenous (iv) tail-vein • Route of treatment: Intraperitoneal Injection (ip) or Oral (po) • Frequency of treatment: Multiple (once- or twice-daily for 6 days) doses, starting 24 hr postcontamination • Treatment dose calculation: Dose calculations (mg/kg or μmol/kg) for the decorporation agent were based on the individual body weight measured after contamination. • Study Duration: 11 days, in-life
c. […] Test article and control dose formulations were prepared within 1 day of dose administration, by weighing out the appropriate amount of test article, dispersing in vehicle. For ip solutions, the test article was used alone, while for oral suspensions, a mixture of test article and excipient (90:10, w:w) was used. The pH was adjusted to 7.0-7.4 for ip administration and 5.0-5.5 for oral administration with sterile NaOH. Dose formulations were prepared at room temperature and filter-sterilized. • Storage: 2-8° C.; refrigerated; protected from light. • Characterization: The concentration of each test article formulation was verified by high-performance liquid chromatography-mass spectrometry. • Test Article Handling: Test, reference, and control article formulations were handled with the use of eye protection, gloves, and a protective laboratory coat. • Correct Dose Assurance: The test article was weighed with calibrated balances. The administration of each dose formulation was properly documented, and the amount administered to each animal recorded.
e. Experimental Procedures (In-Life Evaluations and Euthanasia) • Contamination: Single administration by intravenous (iv) tail-vein injection (0.2 mL injection volume) under isoflurane anesthesia. Three standard 0.2 mL injections were performed into polyethylene bottles and pre-loaded with aliquots of concentrated nitric acid on each injection day. Six female and six male mice were culled for necropsy 1 hr post-contamination and were used as standards. A11 standards were processed and counted together with the final samples to allow verification of the contamination dose. • Dose Administration: Single administration by intraperitoneal injection (ip) or oral gavage (po) under isoflurane anesthesia. • Mortality/Morbidity: Assessed at least once daily. • Clinical Observations: Recorded once daily (4 hr post-dose on day of treatment), or more often as clinical signs warranted. […]

[1] = Day-11 necropsy, animal group I
[2] = Day-11 necropsy, animal group L
[3] = Day-11 necropsy, animal group M
[4] = male arm table, Day 11 necropsy, animal group I
[5] = male arm table, Day 11 necropsy, animal group L
[6] = male arm table, Day 11 necropsy, animal group M

SMILES: O=C(NCCCN(CCCCN(CCCNC(=O)c1cccc(=O)n1O)C(=O)c1cccc(=O)n1O)C(=O)c1cccc(=O)n1O)c1cccc(=O)n1O [3,4,3-L1(1,2-HOPO)]
- % Recovered Dose Kidney (Day-7 necropsy, animal group C): 0.22% and 0.15% and 0.21% and 0.17%
- % Recovered Dose Liver (Day-7 necropsy, animal group C): 15.72% and 12.80% and 16.24% and 16.85%
- % Recovered Dose SKEL (Day-7 necropsy, animal group C): 24.75% and 21.49% and 23.68% and 17.13%
- % Recovered Dose SOFT (Day-7 necropsy, animal group C): 2.28% and 2.12% and 3.24% and 2.82%
- % Recovered Dose Total Feces (Day-7 necropsy, animal group C): 34.40% and 32.67% and 50.44% and 35.35%
- % Recovered Dose ART (Day-7 necropsy, animal group E): 1.02% and 1.34% and 1.21% and 1.33%
- % Recovered Dose Combined Body (Day-7 necropsy, animal group E): 30.49% and 40.14% and 34.97% and 37.95%
- % Recovered Dose Combined Excreta (Day-7 necropsy, animal group E): 69.51% and 59.86% and 65.03% and 62.05%
- % Recovered Dose Kidney (Day-7 necropsy, animal group E): 0.14% and 0.21% and 0.13% and 0.20%
- % Recovered Dose Liver (Day-7 necropsy, animal group E): 9.72% and 15.67% and 11.76% and 13.58%
- % Recovered Dose SKEL (Day-7 necropsy, animal group E): 17.72% and 20.95% and 20.71% and 20.84%
- % Recovered Dose SOFT (Day-7 necropsy, animal group E): 1.89% and 1.96% and 1.16% and 2.00%
- % Recovered Dose Total Feces (Day-7 necropsy, animal group E): 40.90% and 40.04% and 39.60% and 39.91%
- % Recovered Dose Total Urine (Day-7 necropsy, animal group E): 28.61% and 19.82% and 25.43% and 22.13%
- % Recovered Dose ART (Day-7 necropsy, animal group F): 1.03% and 1.92% and 2.25% and 1.33%
- % Recovered Dose Combined Body (Day-7 necropsy, animal group F): 30.37% and 39.36% and 36.59% and 31.04%
- % Recovered Dose Combined Excreta (Day-7 necropsy, animal group F): 69.63% and 60.64% and 63.41% and 68.96%
- % Recovered Dose Kidney (Day-7 necropsy, animal group F): 0.17% and 0.21% and 0.42%
- % Recovered Dose Liver (Day-7 necropsy, animal group F): 7.14% and 17.14% and 15.20% and 10.27%
- % Recovered Dose SKEL (Day-7 necropsy, animal group F): 20.00% and 18.02% and 16.63% and 16.58%
- % Recovered Dose SOFT (Day-7 necropsy, animal group F): 2.03% and 2.08% and 2.10% and 2.66%
- % Recovered Dose Total Feces (Day-7 necropsy, animal group F): 42.75% and 36.05% and 44.44% and 38.86%
- % Recovered Dose Total Urine (Day-7 necropsy, animal group F): 26.88% and 24.59% and 18.97% and 30.09%
- % Recovered Dose Combined Body [1]: 15.90% and 20.53% and 19.46% and 22.16% and 16.51% and 22.02% and 21.03% and 23.25%
- % Recovered Dose Combined Excreta [1]: 84.10% and 79.47% and 80.54% and 77.84% and 83.49% and 77.98% and 78.97% and 76.75%
- % Recovered Dose GI Tract [1]: 0.43% and 0.47% and 0.44% and 0.49% and 0.64% and 0.58% and 0.71%
- % Recovered Dose Kidney [1]: 0.08% and 0.11% and 0.10% and 0.14% and 0.13% and 0.16%
- % Recovered Dose Liver [1]: 2.60% and 1.91% and 2.22% and 2.29% and 3.02% and 2.09% and 2.92% and 2.34%
- % Recovered Dose Soft Tissue [1]: 1.04% and 0.98% and 0.83% and 1.42% and 1.37% and 1.22% and 1.20%
- % Recovered Dose Total Bone [1]: 11.74% and 17.07% and 15.87% and 17.81% and 11.38% and 18.21% and 16.06% and 19.05%
- % Recovered Dose Total Feces [1]: 54.04% and 60.47% and 51.78% and 38.48% and 49.18% and 43.78% and 44.59% and 43.58%
- % Recovered Dose Combined Body [2]: 38.48% and 43.87% and 28.88% and 28.44% and 32.53% and 32.57% and 26.76% and 36.08%
- % Recovered Dose Combined Excreta [2]: 61.52% and 56.13% and 71.12% and 71.56% and 64.47% and 67.43% and 73.24% and 63.92%
- % Recovered Dose GI Tract [2]: 0.99% and 1.04% and 1.13% and 1.03% and 1.21% and 0.97% and 0.90% and 0.93%
- % Recovered Dose Kidney [2]: 0.10% and 0.15% and 0.19% and 0.14%
- % Recovered Dose Soft Tissue [2]: 2.91% and 2.09% and 2.06% and 2.29% and 2.57% and 2.02% and 1.97% and 1.69%
- % Recovered Dose Total Bone [2]: 25.77% and 24.60% and 16.37% and 19.43% and 22.08% and 18.56% and 15.85% and 25.23%
- % Recovered Dose Total Feces [2]: 41.70% and 35.40% and 43.87% and 46.74% and 38.04% and 37.30% and 46.07% and 33.53%
- % Recovered Dose Total Urine [2]: 19.82% and 20.73% and 27.24% and 24.82% and 26.43% and 30.12% and 27.17% and 30.39%
- % Recovered Dose Combined Body [3]: 20.04% and 21.39% and 28.64% and 34.45% and 33.00% and 30.60% and 25.58% and 27.62%
- % Recovered Dose Combined Excreta [3]: 79.96% and 78.61% and 71.36% and 65.55% and 67.00% and 69.40% and 74.42% and 72.38%
- % Recovered Dose GI Tract [3]: 0.61% and 0.50% and 0.89% and 0.48% and 0.99% and 1.00% and 0.73% and 0.76%
- % Recovered Dose Kidney [3]: 0.08% and 0.17% and 0.28% and 0.16% and 0.25% and 0.24% and 0.20% and 0.13%
- % Recovered Dose Liver [3]: 3.86% and 3.49% and 8.37% and 6.17% and 12.45% and 9.96% and 3.83% and 6.08%
- % Recovered Dose Soft Tissue [3]: 1.50% and 1.55% and 1.52% and 2.24% and 2.53% and 2.16% and 2.01% and 1.95%
- % Recovered Dose Total Bone [3]: 13.99% and 15.68% and 17.58% and 25.41% and 16.78% and 17.24% and 18.80% and 18.71%
- % Recovered Dose Total Feces [3]: 53.86% and 46.68% and 46.45% and 35.88% and 40.81% and 59.45% and 36.72% and 39.43%
- % Recovered Dose Urine per Day, Day 2 [4]: 3.96% and 5.51% and 4.41% and 4.63% and 4.05% and 5.30% and 3.86% and 5.05%
- % Recovered Dose Urine per Day, Day 3 [4]: 1.65% and 1.23% and 3.48% and 2.00% and 1.41% and 1.46% and 1.93%
- % Recovered Dose Urine per Day, Day 4 [4]: 0.77% and 0.85% and 0.98% and 1.08% and 0.65% and 0.92% and 0.89% and 0.93%
- % Recovered Dose Urine per Day, Day 5 [4]: 0.94% and 0.87% and 0.59% and 0.63% and 0.79% and 0.76% and 0.28% and 1.05%
- % Recovered Dose Urine per Day, Day 6 [4]: 0.65% and 0.41% and 0.44% and 0.32% and 0.35% and 0.48% and 0.51% and 0.55%
- % Recovered Dose Urine per Day, Day 7 [4]: 0.87% and 1.16% and 0.64% and 0.59% and 0.75% and 0.99% and 1.27%
- % Recovered Dose Urine per Day, Day 8 [4]: 0.32% and 0.70% and 0.71% and 0.52% and 0.77% and 0.79% and 0.51%
- % Recovered Dose Urine per Day, Day 9 [4]: 0.20% and 0.51% and 0.73% and 0.48% and 0.39% and 0.60% and 0.63%
- % Recovered Dose Urine per Day, Day 10 [4]: 0.58% and 0.74% and 0.92% and 0.42% and 0.40% and 0.38% and 0.41%
- % Recovered Dose Urine per Day, Day 11 [4]: 0.39% and 0.44% and 0.55% and 0.31% and 0.43% and 0.00% and 0.71%
- % Recovered Dose Urine per Day, Day 1 [5]: 12.59% and 16.03% and 21.48% and 17.40% and 21.11% and 22.45% and 21.35% and 20.51%
- % Recovered Dose Urine per Day, Day 2 [5]: 2.90% and 1.60% and 1.70% and 2.41% and 1.15% and 2.95% and 2.14% and 3.00%
- % Recovered Dose Urine per Day, Day 3 [5]: 1.04% and 0.84% and 1.21% and 0.62% and 1.08% and 1.06% and 0.54% and 1.49%
- % Recovered Dose Urine per Day, Day 4 [5]: 0.50% and 0.38% and 0.59% and 0.77% and 0.45% and 0.81% and 0.67% and 1.28%
- % Recovered Dose Urine per Day, Day 5 [5]: 0.64% and 0.28% and 0.60% and 0.52% and 0.67% and 0.50% and 0.69%
- % Recovered Dose Urine per Day, Day 6 [5]: 0.60% and 0.06% and 0.37% and 0.49% and 0.33% and 0.48% and 0.43%
- % Recovered Dose Urine per Day, Day 7 [5]: 0.61% and 0.22% and 0.72% and 1.23% and 0.46% and 0.44% and 0.51% and 0.75%
- % Recovered Dose Urine per Day, Day 8 [5]: 0.30% and 0.16% and 0.05% and 0.55% and 0.60% and 0.62%
- % Recovered Dose Urine per Day, Day 9 [5]: 0.21% and 0.30% and 0.20% and 0.22% and 0.55% and 0.27% and 0.25% and 0.67%
- % Recovered Dose Urine per Day, Day 10 [5]: 0.24% and 0.45% and 0.12% and 0.20% and 0.21% and 0.30% and 0.34% and 0.63%
- % Recovered Dose Urine per Day, Day 11 [5]: 0.20% and 0.41% and 0.40% and 0.14% and 0.18% and 0.34% and 0.31%
- % Recovered Dose Urine per Day, Day 2 [6]: 2.27% and 2.99% and 2.82% and 2.73% and 2.07% and 4.97% and 3.05%
- % Recovered Dose Urine per Day, Day 3 [6]: 0.81% and 1.49% and 1.40% and 1.64% and 1.14% and 1.43% and 1.07% and 1.00%
- % Recovered Dose Urine per Day, Day 4 [6]: 0.47% and 0.64% and 0.77% and 0.68% and 0.62% and 0.31% and 0.58% and 0.72%
